# Measurements taken from ChEMBL document CHEMBL4715875, “Evaluation of the in Vivo Aphrodisiac Activity of a Cyclotide Extract from Hybanthus enneaspermus” (2020).
# Positions of bridges follow the written chain, without caps; N, C: chain ends. Residues, ends and D or L forms follow the SMILES beside them.
# Legend:
# Type in all cases: functional
# [1] = system: Rattus norvegicus; assay: Induction of libido-enhancing activity in Wistar rat assessed as number of intromission at 5 mg/kg, po pre-treated for 30 mins followed by female rat introduction and measured up to 2 hrs (reference value: 76 +/- 11); details: time hrs <=2.5
# [2] = system: Rattus norvegicus; assay: Induction of libido-enhancing activity in Wistar rat assessed as number of intromission at 5 mg/kg, po pre-treated for 30 mins followed by female rat introduction and measured up to 1 hr (reference value: 63 +/- 7.7); details: time hrs <=1.5
# [3] = system: Rattus norvegicus; assay: Induction of libido-enhancing activity in Wistar rat assessed as total number of mount at 5 mg/kg, po pre-treated for 30 mins followed by female rat introduction (reference value: 3.9 +/- 1.2); details: 0.5 h
# [4] = system: Rattus norvegicus; assay: Induction of libido-enhancing activity in Wistar rat assessed as number of mount at 5 mg/kg, po pre-treated for 30 mins followed by female rat introduction and measured up to 3 hrs (reference value: 3.9 +/- 1.2); details: time hrs <=3.5
# [5] = system: Rattus norvegicus; assay: Induction of libido-enhancing activity in Wistar rat assessed as number of mount at 5 mg/kg, po pre-treated for 30 mins followed by female rat introduction and measured up to 2 hrs (reference value: 9.1 +/- 3); details: time hrs <=2.5
# [6] = system: Rattus norvegicus; assay: Induction of libido-enhancing activity in Wistar rat assessed as number of mount at 5 mg/kg, po pre-treated for 30 mins followed by female rat introduction and measured up to 1 hr (reference value: 16 +/- 6.9); details: time hrs <=1.5
# [7] = system: Rattus norvegicus; assay: Induction of libido-enhancing activity in Wistar rat assessed as copulatory plugs at 5 mg/kg, po pre-treated for 30 mins followed by female rat introduction and measured up to 3 hrs (reference value: 4.2 +/- 0.6 sec); details: time min <=210
# [8] = system: Rattus norvegicus; assay: Induction of libido-enhancing activity in Wistar rat assessed as ejaculation post interval time at 5 mg/kg, po pre-treated for 30 mins followed by female rat introduction and measured up to 3 hrs (reference value: 760 +/- 50 sec); details: time min <=210
# [9] = system: Rattus norvegicus; assay: Induction of libido-enhancing activity in Wistar rat assessed as ejaculation latency latency time at 5 mg/kg, po pre-treated for 30 mins followed by female rat introduction and measured up to 3 hrs (reference value: 1300 +/- 320 sec); details: time min <=210
# [10] = system: Rattus norvegicus; assay: Induction of libido-enhancing activity in Wistar rat assessed as intromission ratio at 5 mg/kg, po pre-treated for 30 mins followed by female rat introduction and measured up to 3 hrs (reference value: 86 +/- 4.1%); details: time min <=210
# [11] = system: Rattus norvegicus; assay: Induction of libido-enhancing activity in Wistar rat assessed as mount frequency at 5 mg/kg, po pre-treated for 30 mins followed by female rat introduction and measured up to 3 hrs (reference value: 5.8 +/- 2.1); details: time min <=210
# [12] = system: Rattus norvegicus; assay: Induction of libido-enhancing activity in Wistar rat assessed as intromission frequency at 5 mg/kg, po pre-treated for 30 mins followed by female rat introduction and measured up to 3 hrs (reference value: 35 +/- 5); details: time min <=210
# [13] = system: Rattus norvegicus; assay: Induction of libido-enhancing activity in Wistar rat assessed as intromission latency time at 5 mg/kg, po pre-treated for 30 mins followed by female rat introduction and measured up to 3 hrs (reference value: 270 +/- 68 sec); details: time min <=210
# [14] = system: Rattus norvegicus; assay: Induction of libido-enhancing activity in Wistar rat assessed as first behavior latency time at 5 mg/kg, po pre-treated for 30 mins followed by female rat introduction and measured up to 3 hrs (reference value: 200 +/- 40 sec); details: time min <=210
# [15] = system: Rattus norvegicus; assay: Induction of libido-enhancing activity in Wistar rat assessed as number of intromission at 5 mg/kg, po pre-treated for 30 mins followed by female rat introduction and measured up to 3 hrs (reference value: 49 +/- 8.5); details: time hrs <=3.5
# [16] = system: Rattus norvegicus; assay: Induction of libido-enhancing activity in Wistar rat assessed as number of intromission at 5 mg/kg, po pre-treated for 30 mins followed by female rat introduction (reference value: 170 +/- 32); details: 0.5 h
# [17] = system: Rattus norvegicus; assay: Induction of libido-enhancing activity in Wistar rat assessed as number of ejaculations at 5 mg/kg, po pre-treated for 30 mins followed by female rat introduction and measured up to 1 hr (reference value: 2.2 +/- 0.4); details: time hrs <=1.5
# [18] = system: Rattus norvegicus; assay: Induction of libido-enhancing activity in Wistar rat assessed as number of ejaculations at 5 mg/kg, po pre-treated for 30 mins followed by female rat introduction and measured up to 2 hrs (reference value: 2.2 +/- 0.3); details: time hrs <=2.5
# [19] = system: Rattus norvegicus; assay: Induction of libido-enhancing activity in Wistar rat assessed as number of ejaculations at 5 mg/kg, po pre-treated for 30 mins followed by female rat introduction and measured up to 3 hrs (reference value: 1.2 +/- 0.3); details: time hrs <=3.5
# [20] = system: Rattus norvegicus; assay: Induction of libido-enhancing activity in Wistar rat assessed as number of ejaculations at 5 mg/kg, po pre-treated for 30 mins followed by female rat introduction (reference value: 5.5 +/- 0.6); details: 0.5 h
smiles,measurement,setting,value
CC(=O)CC(O)(CC(C)=O)C(C)=O.CCCc1nn(C)c2c(=O)nc(-c3cc(S(=O)(=O)N4CCN(C)CC4)ccc3OCC)[nH]c12,Activity,[1],63
same,Activity,[2],65
same,Activity,[3],26
same,Activity,[4],2.3
same,Activity,[5],6.7
same,Activity,[6],8.3
same,Activity,[7],6
same,Time,[8],860 s
same,Time,[9],940 s
same,Activity,[10],85%
same,Activity,[11],4.7
same,Activity,[12],23
same,Time,[13],96 s
same,Time,[14],96 s
same,Activity,[15],38
same,Activity,[16],180
same,Activity,[17],2
same,Activity,[18],2.8
same,Activity,[19],2.2
same,Activity,[20],7.7
"CC[C@H](C)[C@@H]1NC(=O)[C@H](C)NC(=O)[C@H](C)NC(=O)[C@H]([C@@H](C)O)NC(=O)[C@H](Cc2ccccc2)NC(=O)[C@@H]2CSSC[C@@H](C(=O)N[C@@H](Cc3ccc(O)cc3)C(=O)N[C@@H](CCCCN)C(=O)N[C@@H](CC(N)=O)C(=O)O)NC(=O)[C@H](C(C)C)NC(=O)[C@H](CCCCN)NC(=O)[C@H](CO)NC(=O)[C@H](CCCCN)NC(=O)[C@@H]3CSSC[C@H](NC(=O)[C@H](CO)NC(=O)[C@H](CCC(=O)O)NC(=O)CNC(=O)[C@@H](NC(=O)[C@@H]4CCCN4C(=O)[C@H](Cc4ccccc4)NC(=O)CN)CSSC[C@H](NC(=O)CNC1=O)C(=O)N[C@@H](CO)C(=O)N3)C(=O)N[C@@H](C(C)C)C(=O)N[C@@H](Cc1ccc(O)cc1)C(=O)N[C@@H]([C@@H](C)CC)C(=O)N1CCC[C@H]1C(=O)N2 (H-GFPCGESCVYIPCFTAAIGCSCKSKVCYKN-OH; disulfide 4-20, 8-22, 13-27)",Activity,[1],67
same,Activity,[2],69
same,Activity,[3],19
same,Activity,[4],9.7
same,Activity,[5],5.8
same,Activity,[6],3.2
same,Activity,[7],5.5
same,Time,[8],690 s
same,Time,[9],1000 s
same,Activity,[10],91%
same,Activity,[11],3.1
same,Activity,[12],28
same,Time,[13],78 s
same,Time,[14],76 s
same,Activity,[15],44
same,Activity,[16],180
same,Activity,[17],1.5
same,Activity,[18],3
same,Activity,[19],2
same,Activity,[20],6.5
